Where two headings read alike, the source gives them in different places.
Experiment: Pharmacokinetics of ZA in pig serum after IV or SC infusion with or without rHuPH20 (LC-MS-MS, non-compartmental analysis)
Type: in vivo
Conditions: ZA […], rHuPH20 0 U/mL
Procedure: A pharmacokinetic study of zoledronic acid (ZA) co-administered with rHuPH20 in female Yorkshire swines was conducted. The primary objective of the study was to determine the bioavailability of zoledronic acid dosed via subcutaneous (SC) co-administration with human recombinant hyaluronidase PH20 (rHuPH20) and to compare the overall exposure to an equivalent IV dose.
Animals in Study Group 1 were dosed with 0.15 mg/kg ZA given via a 20-minute IV infusion. Animals in Study Groups 2 and 3 were dosed subcutaneously (SC) with 0.15 mg/kg ZA without and with rHuPH20, respectively, in different SC delivery volumes.
Following ZA dose administration, serial blood samples were collected via vascular access ports (VAPs) for serum preparation and determination of ZA concentrations. Blood collection times were at 1, 3, 5, 10, 15, 20, 30, 45, and 60 minutes, and at 1.5, 2, 3, 4, 6, 8, 10, 24, 48, and 72 hours post dose. Urine samples were also collected to compare excretion characteristics between IV and SC routes of administration. Collection times for urine were at 15 minutes before dosing (−15 min.), continuously from dose initiation to 2 hours post dose, and at 4, 6, 8, and 24 hours post dose thereafter.
Serum concentration of ZA was determined using a qualified LC-MS-MS assay after derivatization with diazomethane (Zhu, L S et al. (2006) Rapid Commun. Mass Spectrom. 20: 3421-3426; “Qualification Data of An LC-MS/MS Method for the Determination of Zoledronate in Porcine Serum”, MDS Pharma Services Study No. AA43671-01, Report Date 14 Sep. 2007). The assay range was from 2.0 to 400 ng/mL with a lower limit of quantitation (LLOQ) at 2.0 ng/mL. Urine concentration of ZA was determined by a similar well qualified LC-MS-MS method (“Qualification Data of An LC-MS/MS Method for the Determination of Zoledronate in Porcine Urine”, MDS Pharma Services Study No. AA43671-02, Report Date 14 Sep. 2007) with an assay LLOQ at 10 ng/mL.
Pharmacokinetic (PK) analyses of ZA serum concentration versus time data were conducted using WinNonlin v5.1 (Pharsight, Mountain View, Calif.). Non-compartmental analysis was used for derivation of primary and secondary pharmacokinetic (PK) parameters. AUC, Cmax, and Tmax were compared between dose routes, between co-administration with rHuPH20, and with dose of rHuPH20.

[1] = female, Yorkshire, pig, serum, intravenous, […], animal ID 57, Study Group 1, IV 20 min infusion, read-out: Zoledronic Acid Serum Concentration
[2] = female, Yorkshire, pig, serum, intravenous, […], animal ID 61, Study Group 1, IV 20 min infusion, read-out: Zoledronic Acid Serum Concentration

O=P(O)(O)C(O)(Cn1ccnc1)P(=O)(O)O [ZA, 1-hydroxy-2-(1H-imidazol-1-yl)ethylidene-1,1-bisphosphonic acid]
Zoledronic Acid Serum Concentration (Time 6 h, pig ID 59, Study Group 2, SC, 100 mL, 16 min): BLQ (BLQ = below assay limit of quantification (2.0 ng/mL)) | Zoledronic Acid Serum Concentration (Time 8 h, pig ID 59, Study Group 2, SC, 100 mL, 16 min): BLQ (BLQ = below assay limit of quantification (2.0 ng/mL)) | Zoledronic Acid Serum Concentration (Time 8 h, pig ID 60, Study Group 2, SC, 100 mL, 16 min): BLQ (BLQ = below assay limit of quantification (2.0 ng/mL)) | Zoledronic Acid Serum Concentration (Time 8 h, pig ID 62, Study Group 2, SC, 50 mL, 8 min): BLQ (BLQ = below assay limit of quantification (2.0 ng/mL)) | Zoledronic Acid Serum Concentration (Time 8 h, pig ID 69, Study Group 2, SC, 25 mL, 4 min): BLQ (BLQ = below assay limit of quantification (2.0 ng/mL)) | Zoledronic Acid Serum Concentration (Time 10 h, pig ID 59, Study Group 2, SC, 100 mL, 16 min): BLQ (BLQ = below assay limit of quantification (2.0 ng/mL)) | Zoledronic Acid Serum Concentration (Time 10 h, pig ID 60, Study Group 2, SC, 100 mL, 16 min): BLQ (BLQ = below assay limit of quantification (2.0 ng/mL)) | Zoledronic Acid Serum Concentration (Time 10 h, pig ID 62, Study Group 2, SC, 50 mL, 8 min): BLQ (BLQ = below assay limit of quantification (2.0 ng/mL)) | Zoledronic Acid Serum Concentration (Time 10 h, pig ID 69, Study Group 2, SC, 25 mL, 4 min): BLQ (BLQ = below assay limit of quantification (2.0 ng/mL)) | Zoledronic Acid Serum Concentration (Time 10 h, pig ID 70, Study Group 2, SC, 10 mL, 1.6 min): BLQ (BLQ = below assay limit of quantification (2.0 ng/mL)) | Zoledronic Acid Serum Concentration (Time 24 h, pig ID 59, Study Group 2, SC, 100 mL, 16 min): BLQ (BLQ = below assay limit of quantification (2.0 ng/mL)) | Zoledronic Acid Serum Concentration (Time 24 h, pig ID 60, Study Group 2, SC, 100 mL, 16 min): BLQ (BLQ = below assay limit of quantification (2.0 ng/mL)) | Zoledronic Acid Serum Concentration (Time 24 h, pig ID 62, Study Group 2, SC, 50 mL, 8 min): BLQ (BLQ = below assay limit of quantification (2.0 ng/mL)) | Zoledronic Acid Serum Concentration (Time 24 h, pig ID 69, Study Group 2, SC, 25 mL, 4 min): BLQ (BLQ = below assay limit of quantification (2.0 ng/mL)) | Zoledronic Acid Serum Concentration (Time 24 h, pig ID 70, Study Group 2, SC, 10 mL, 1.6 min): BLQ (BLQ = below assay limit of quantification (2.0 ng/mL)) | Zoledronic Acid Serum Concentration (Time 48 h, pig ID 59, Study Group 2, SC, 100 mL, 16 min): BLQ (BLQ = below assay limit of quantification (2.0 ng/mL)) | Zoledronic Acid Serum Concentration (Time 48 h, pig ID 60, Study Group 2, SC, 100 mL, 16 min): BLQ (BLQ = below assay limit of quantification (2.0 ng/mL)) | Zoledronic Acid Serum Concentration (Time 48 h, pig ID 62, Study Group 2, SC, 50 mL, 8 min): BLQ (BLQ = below assay limit of quantification (2.0 ng/mL)) | Zoledronic Acid Serum Concentration (Time 48 h, pig ID 69, Study Group 2, SC, 25 mL, 4 min): BLQ (BLQ = below assay limit of quantification (2.0 ng/mL)) | Zoledronic Acid Serum Concentration (Time 48 h, pig ID 70, Study Group 2, SC, 10 mL, 1.6 min): BLQ (BLQ = below assay limit of quantification (2.0 ng/mL)) | Zoledronic Acid Serum Concentration (Time 72 h, pig ID 59, Study Group 2, SC, 100 mL, 16 min): BLQ (BLQ = below assay limit of quantification (2.0 ng/mL)) | Zoledronic Acid Serum Concentration (Time 72 h, pig ID 60, Study Group 2, SC, 100 mL, 16 min): BLQ (BLQ = below assay limit of quantification (2.0 ng/mL)) | Zoledronic Acid Serum Concentration (Time 72 h, pig ID 62, Study Group 2, SC, 50 mL, 8 min): BLQ (BLQ = below assay limit of quantification (2.0 ng/mL)) | Zoledronic Acid Serum Concentration (Time 72 h, pig ID 69, Study Group 2, SC, 25 mL, 4 min): BLQ (BLQ = below assay limit of quantification (2.0 ng/mL)) | Zoledronic Acid Serum Concentration (Time 72 h, pig ID 70, Study Group 2, SC, 10 mL, 1.6 min): BLQ (BLQ = below assay limit of quantification (2.0 ng/mL)) | Zoledronic Acid Serum Concentration (Time […], pig ID 60, Study Group 2, SC, 100 mL, 16 min): BLQ (BLQ = below assay limit of quantification (2.0 ng/mL)) | Zoledronic Acid Serum Concentration (Time […], pig ID 62, Study Group 2, SC, 50 mL, 8 min): BLQ (BLQ = below assay limit of quantification (2.0 ng/mL)) | Zoledronic Acid Serum Concentration (Time […], pig ID 69, Study Group 2, SC, 25 mL, 4 min): BLQ (BLQ = below assay limit of quantification (2.0 ng/mL)) | Zoledronic Acid Serum Concentration (Time […], pig ID 70, Study Group 2, SC, 10 mL, 1.6 min): BLQ (BLQ = below assay limit of quantification (2.0 ng/mL)) | Zoledronic Acid Serum Concentration (animal ID 57, Study Group 1, IV 20 min infusion, time 6 h): BLQ^a (BLQ = below assay limit of quantification (2.0 ng/mL)) | Zoledronic Acid Serum Concentration (animal ID 57, Study Group 1, IV 20 min infusion, time 8 h): BLQ (BLQ = below assay limit of quantification (2.0 ng/mL)) | Zoledronic Acid Serum Concentration (animal ID 57, Study Group 1, IV 20 min infusion, time 10 h): BLQ (BLQ = below assay limit of quantification (2.0 ng/mL)) | Zoledronic Acid Serum Concentration (animal ID 57, Study Group 1, IV 20 min infusion, time 24 h): BLQ (BLQ = below assay limit of quantification (2.0 ng/mL)) | Zoledronic Acid Serum Concentration (animal ID 57, Study Group 1, IV 20 min infusion, time 48 h): BLQ (BLQ = below assay limit of quantification (2.0 ng/mL)) | Zoledronic Acid Serum Concentration (animal ID 57, Study Group 1, IV 20 min infusion, time 72 h): BLQ (BLQ = below assay limit of quantification (2.0 ng/mL)) | Zoledronic Acid Serum Concentration (animal ID 57, Study Group 1, IV 20 min infusion, time […]): BLQ (BLQ = below assay limit of quantification (2.0 ng/mL)) | Zoledronic Acid Serum Concentration (animal ID 61, Study Group 1, IV 20 min infusion, time 6 h): BLQ (BLQ = below assay limit of quantification (2.0 ng/mL)) | Zoledronic Acid Serum Concentration (animal ID 61, Study Group 1, IV 20 min infusion, time 8 h): BLQ (BLQ = below assay limit of quantification (2.0 ng/mL)) | Zoledronic Acid Serum Concentration (animal ID 61, Study Group 1, IV 20 min infusion, time 10 h): BLQ (BLQ = below assay limit of quantification (2.0 ng/mL)) | Zoledronic Acid Serum Concentration (animal ID 61, Study Group 1, IV 20 min infusion, time 24 h): BLQ (BLQ = below assay limit of quantification (2.0 ng/mL)) | Zoledronic Acid Serum Concentration (animal ID 61, Study Group 1, IV 20 min infusion, time 48 h): BLQ (BLQ = below assay limit of quantification (2.0 ng/mL)) | Zoledronic Acid Serum Concentration (animal ID 61, Study Group 1, IV 20 min infusion, time 72 h): BLQ (BLQ = below assay limit of quantification (2.0 ng/mL)) | Zoledronic Acid Serum Concentration (animal ID 61, Study Group 1, IV 20 min infusion, time […]): BLQ (BLQ = below assay limit of quantification (2.0 ng/mL)) | Zoledronic Acid Serum Concentration (animal ID 67, Study Group 1, IV 20 min infusion, time 6 h): BLQ (BLQ = below assay limit of quantification (2.0 ng/mL)) | Zoledronic Acid Serum Concentration (animal ID 67, Study Group 1, IV 20 min infusion, time 8 h): BLQ (BLQ = below assay limit of quantification (2.0 ng/mL)) | Zoledronic Acid Serum Concentration (animal ID 67, Study Group 1, IV 20 min infusion, time 10 h): BLQ (BLQ = below assay limit of quantification (2.0 ng/mL)) | Zoledronic Acid Serum Concentration (animal ID 67, Study Group 1, IV 20 min infusion, time 24 h): BLQ (BLQ = below assay limit of quantification (2.0 ng/mL)) | Zoledronic Acid Serum Concentration (animal ID 67, Study Group 1, IV 20 min infusion, time 48 h): BLQ (BLQ = below assay limit of quantification (2.0 ng/mL)) | Zoledronic Acid Serum Concentration (animal ID 67, Study Group 1, IV 20 min infusion, time 72 h): BLQ (BLQ = below assay limit of quantification (2.0 ng/mL)) | Zoledronic Acid Serum Concentration (animal ID 67, Study Group 1, IV 20 min infusion, time […]): BLQ (BLQ = below assay limit of quantification (2.0 ng/mL)) | concentration at 0.016 h [1]: 0.255 µg/mL | concentration at 0.05 h [1]: 0.446 µg/mL | concentration at 0.333 h [1]: 0.388 µg/mL | concentration at 0.5 h (female, Yorkshire, pig, serum, intravenous, […], animal ID 57, Study Group 1, IV 20 min infusion, time 0.50 h, read-out: Zoledronic Acid Serum Concentration): 0.244 µg/mL | concentration at 1 h (female, Yorkshire, pig, serum, intravenous, […], animal ID 57, Study Group 1, IV 20 min infusion, time 1.00 h, read-out: Zoledronic Acid Serum Concentration): 0.0714 µg/mL | concentration at 2 h (female, Yorkshire, pig, serum, intravenous, […], animal ID 57, Study Group 1, IV 20 min infusion, time 2 h, read-out: Zoledronic Acid Serum Concentration): 0.0154 µg/mL | concentration at 3 h (female, Yorkshire, pig, serum, intravenous, […], animal ID 57, Study Group 1, IV 20 min infusion, time 3 h, read-out: Zoledronic Acid Serum Concentration): 0.0058 µg/mL | concentration at 4 h (female, Yorkshire, pig, serum, intravenous, […], animal ID 57, Study Group 1, IV 20 min infusion, time 4 h, read-out: Zoledronic Acid Serum Concentration): 0.0028 µg/mL | concentration at 0.016 h [2]: 0.254 µg/mL | concentration at 0.05 h [2]: 0.196 µg/mL | concentration at 0.333 h [2]: 0.596 µg/mL | concentration at 0.5 h (female, Yorkshire, pig, serum, intravenous, […], animal ID 61, Study Group 1, IV 20 min infusion, time 0.5 h, read-out: Zoledronic Acid Serum Concentration): 0.299 µg/mL | concentration at 1 h (female, Yorkshire, pig, serum, intravenous, […], animal ID 61, Study Group 1, IV 20 min infusion, time 1 h, read-out: Zoledronic Acid Serum Concentration): 0.0855 µg/mL

Source: patent US20090311237A1, “Combination therapy using a soluble hyaluronidase and a bisphosphonate” (priority 2008, published 2009)
